We go through five molecules from patent US9958433B2, “Method and system for in vitro developmental toxicity testing” (Agency for Science, Technology and Research, priority 2012, dated 2018).

Series [1] deals with micropatterned hESC colonies. The series can be described thus: Micropatterned hESC mesoendoderm pattern disruption (Brachyury immunofluorescence, Asymmetrical Ratio). The conditions noted are these: for Asymmetrical Ratio decrease relative to untreated control: 3 days of differentiation, control ratio 3; for Asymmetrical Ratio after treatment (average intensity ratio of ring area to off-ring area): human, 3 days. From the text: In order to generate gradients of mechanical stress, circle or square shapes of Matrigel matrix with two different sizes (785000 μm2 or 196250 μm2) were designed using AutoCAD software. Then polydimethylsiloxane (PDMS) stencils were fabricated by using a laser-cutter (Universal Laser System) to cut the designated shape patterns on a 127 μm thick PDMS sheet (Specialty Silicone Products Inc.) and then bonding it to a laser-cut, 2 mm thick PDMS gasket. For cell patterning, the PDMS stencil was first sealed into a 60 mm petri dish by adding 200 μl 70% ethanol and dried in the tissue culture hood, then Matrigel™ (BD Biosciences) matrix was coated by at least hour incubation with the Matrigel™ solution (FIG. 1). Thereafter cells were seeded at a density of 4 million cells/ml. After 1 hour incubation for cell attachment, the stencil and excess unattached cells were removed. The surface was then passivated with 0.5% pluronic acid for 10 mins before 3-time washing. The acquired patterned hESC were incubated overnight in mTesR1 maintenance medium (StemCell Technologies) for stabilization and the mesoendoderm induction was started the next day.
The differentiation of patterned hESC colonies were induced by mesoendoderm induction medium, which comprises of 100 ng/ml Activin, 25 ng/ml BMP4 and 10 ng/ml FGF2 in basal serum-free APEL™ medium (STEMdiff™, StemCell Technologies). For developmental toxicity testing, the patterned hESC colonies were cultured in mesoendoderm induction medium together with the test chemical. The induction lasted 3 days and the medium is half changed daily with/without the test chemical.
Samples were fixed on Day 3 of differentiation. Immunofluorescence staining was done to check the expression distribution of early mesoendodermal marker Brachyury. Image acquisition was done under 10× objective using Olympus fluorescence microscope and Asymmetrical Ratio was calculated using MATLAB programming (FIG. 5). Results
Three known teratogens (0.1 mM Valproic acid (VPA), 0.05 ug/ml 5-Fluorouracil (5-FU), and 0.8 mM Thalidomide) were tested using this model. Mesoendoderm induction medium together with the drug was added into our model and incubated for 3 days before the samples were fixed for immunofluorescence staining of Brachyury. Half of the medium was changed daily with the drug. An untreated control which was only cultured in mesoendoderm induction medium without any drug was also done. […] In order to measure the disruption, we used Asymmetrical Ratio as a parameter to evaluate the asymmetrical patterns with or without drug treatment, which indicate the average intensity ratio of “ring” area to “off-ring” area (FIG. 5).

For series [2], the system named is adult human dermal fibroblasts (aHDFs).
The subject of another series is μP-hESC colony. The series can be described thus: Live imaging / kymograph of collective cell migration in μP-hESC colony under drug treatment. It is filed as cell-based, human. An excerpt:
Spatially localized differentiated cells (at edge of stem cell colony) underwent coordinated cell movement to form a 3D-like structural motif as observed by live imaging (FIG. 8D). The trajectory of the coordinated cell movement can be seen from a space-time plot (kymograph) of the differentiating stem cells (FIG. 8E).

The next series has as its system μP-hESC colonies. The series can be described thus: PCA of morphological features of mesoendoderm motif in μP-hESC colonies (dose-dependent developmental toxicity). Here is the method: Alterations to the different morphological features of the mesoendoderm structural motif were quantitatively measured by image processing at different concentrations of drugs. These morphological features at different drug concentrations were analyzed with principal component analysis (PCA). A data point represents each morphological feature; the data point color represents the drug concentration used in the treatment. […] Data Collection Process: 1. Treat our μP-hESC colonies with 3 different concentrations of each drug and fix the samples on day 3 together with the untreated normal control samples. Acquire T immunofluorescence images of samples under Olympus fluorescence microscope. 2. Process all the T fluorescence images using Matlab to extract all the relevant morphological features of the samples representing the spatial distribution of the mesoendoderm motif (T^+ positive region in the images).

Series [3] deals with hESC cell line H9.
In series [4] the test system is adult human dermal fibroblasts (aHDFs). The series can be described thus: Cytotoxicity test (MTS) on adult fibroblasts. Particulars: at the drug's effective concentration (EC).
Series [5] has as its system hESC cell line H9. The series can be described thus: Cytotoxicity test (MTS) on hESC. Particulars: at the drug's effective concentration (EC).
Another series deals with human. The conditions noted are these: cited from earlier work.

Where two headings read alike, the source gives them in different places.

For `CCCC(CCC)C(=O)O` [VPA, Valproic acid], in series [1], the “Localization of the mesoendoderm motif (T+ region)” value (“Localization … (T+ region)” below) is “misplaced”. Besides, the “Asymmetrical Ratio decrease relative to untreated control” value in series [1] (0.1 mM VPA) is approximately 70%. In addition, in series [1] (0.1 mM), the “Asymmetrical Ratio after treatment (average intensity ratio of ring area to off-ring area)” value (from here on “Asymmetrical Ratio after treatment”) was approximately 0.9. Besides, the “Toxicity to aHDFs” value in series [2] was “a little toxic”. Also, in the series with μP-hESC colony, the “Trajectories of collective cell migration (kymograph)” value (shortened to “Trajectories”) was “disrupted”. In the series on μP-hESC colonies, the “Drug classification by developmental toxicity effect” value (“Drug classification” below) is reported as “very embryotoxic”. Further, in the series on μP-hESC colonies (human, 3 days), the “Concentrations at which spatial distribution of mesoendoderm motif was significantly disrupted (PCA)” value was “>= 0.8 mM” and the “Effective concentration (lowest concentration which significantly disrupted spatial localization of mesoendoderm motif)” value is given as approximately 0.8 mM. In addition, the “Toxicity to H9 cells” value with hESC cell line H9 [3] was “very toxic”. In the series on hESC cell line H9 [3] (human), the H9 cell survival is approximately 20%.

As for `O=c1[nH]cc(F)c(=O)[nH]1` [5-FU, 5-Fluorouracil], in series [1] (0.05 μg/ml 5-FU), the “Asymmetrical Ratio decrease relative to untreated control” value was 46.7%. Besides, the “Asymmetrical Ratio after treatment” value in series [1] (0.05 μg/ml) was 1.6.

Consider `O=C1CCC(N2C(=O)c3ccccc3C2=O)C(=O)N1` (stereo not shown) [Thalidomide], for which the “Localization … (T+ region)” value in series [1] is reported as “misplaced”. Besides, the “Asymmetrical Ratio decrease relative to untreated control” value in series [1] (0.8 mM Thalidomide) is approximately 70%. Also, the “Asymmetrical Ratio after treatment” value in series [1] (0.8 mM) is recorded as approximately 0.9. Further, the “Trajectories” value in the series with μP-hESC colony is “disrupted”. Besides, in the series with μP-hESC colonies, the “Drug classification” value is “both teratogenic and embryotoxic”. Besides, in the series on μP-hESC colonies (human, 3 days), the “Concentrations at which spatial distribution of mesoendoderm motif was significantly disrupted (PCA)” value is on record as “>= 300 μM” and the “Effective concentration (lowest concentration which significantly disrupted spatial localization of mesoendoderm motif)” value was approximately 0.3 mM. For the same molecule, in series [4], the “Toxicity to aHDFs” value was “not toxic”. Also, in the series with hESC cell line H9 [5], the H9 cell survival is more than 50% and the “Toxicity to H9 cells” value is given as “toxic”. The Developmental deformation result in the series with human is “causes developmental deformation in human”.

As for `CC1=C(/C=C/C(C)=C/C=C/C(C)=C/C(=O)O)C(C)(C)CCC1` [RA, retinoic acid], the “Drug classification” value with μP-hESC colonies is listed as “teratogenic”. Further, in the series on μP-hESC colonies (human, 3 days), the “Concentrations at which spatial distribution of mesoendoderm motif was significantly disrupted (PCA)” value is “>= 0.0036 μg/ml” and the “Effective concentration (lowest concentration which significantly disrupted spatial localization of mesoendoderm motif)” value was approximately 0.0036 µg/mL. In addition, the “Toxicity to aHDFs” value in series [4] was “not toxic”. Moreover, the “Toxicity to H9 cells” value in the series on hESC cell line H9 [5] is reported as “not toxic”.

With `CC1(C)S[C@@H]2[C@H](NC(=O)Cc3ccccc3)C(=O)N2[C@H]1C(=O)O` [Penicillin G], the “Localization … (T+ region)” value in series [1] (day3, FIG. 9B) was “remained unchanged”. Also, in the series with μP-hESC colony (day2-3 of differentiation), the “Trajectories” value was “unaffected”. Besides, the “PCA clustering of morphological features by drug concentration” value with μP-hESC colonies (3 concentrations of each drug, day 3) is reported as “cannot be segregated”. In addition, the “Drug classification” value in the series on μP-hESC colonies (based on PCA and cytotoxicity test (MTS) results) is on record as “non-developmental toxic”. Moreover, in the series with μP-hESC colonies (day 3, μP-hESC colonies), the “Concentrations at which spatial distribution of mesoendoderm motif was significantly disrupted (PCA)” value was more than 1000 µg/mL. For the same molecule, the “Effective concentration (lowest concentration which significantly disrupted spatial localization of mesoendoderm motif)” value in the series on μP-hESC colonies (μP-hESC models) is reported as “above 1000 μg/ml”.
